Source: the supplement of paper PMC12463676, “Small-molecule dissolution of stress granules by redox modulation benefits ALS models” (Nature Chemical Biology, 2025)

Assays:
[1] = compound: O=[As]([O-])(O)O.[K+] [potassium arsenate]; experiment: thermal stability z-score vs DMSO; higher = more thermally stabilized by treatment; settings: HeLa; arsenate concentration 1 mM
Procedure: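 Cellular thermal proteome profiling in HeLa cells treated with 1 mM arsenate for 1 h (DMSO pretreatment), heated to ten temperatures (37-66.3 °C). Soluble protein was quantified by TMT mass spectrometry relative to DMSO controls; the thermal stability score was transformed to a z-score; mean of n = 3 experiments.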

[2] = compound: NC(=O)CCCCC1CCSS1 [lipoamide]; experiment: as above; settings: HeLa, lipoamide concentration 100 µM
Procedure: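 Cellular thermal proteome profiling in HeLa cells. Cells were treated with 100 µM lipoamide for 1 h, with or without 1 mM arsenate for a further 1 h, then heated to ten temperatures (37-66.3 °C), and soluble protein was quantified by TMT mass spectrometry relative to 0.1% DMSO controls. The thermal stability score (sum of log2 fold changes minus the abundance score) was transformed to a z-score; mean of n = 3 experiments.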

[3] = arsenate co-treatment: 1 mM arsenate 1 h
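Note: each temperature applied for 3 min, abundance score taken as mean log2 fold change at the two lowest temperatures, z-score obtained by mean subtraction and division by SD.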

PSIP1 (UniProt O75475)
thermal stability z-score [1]: -0.306 | thermal stability z-score [2, 3]: 0.499 | thermal stability z-score ([2]; arsenate co-treatment: none): 0.761

PSMA1 (UniProt P25786)
thermal stability z-score [1]: 0.373 | thermal stability z-score [2, 3]: 0.629 | thermal stability z-score ([2]; arsenate co-treatment: none): 0.284

PSMA2 (UniProt P25787)
Sequence of UniProt P25787 (P25787 whole entry): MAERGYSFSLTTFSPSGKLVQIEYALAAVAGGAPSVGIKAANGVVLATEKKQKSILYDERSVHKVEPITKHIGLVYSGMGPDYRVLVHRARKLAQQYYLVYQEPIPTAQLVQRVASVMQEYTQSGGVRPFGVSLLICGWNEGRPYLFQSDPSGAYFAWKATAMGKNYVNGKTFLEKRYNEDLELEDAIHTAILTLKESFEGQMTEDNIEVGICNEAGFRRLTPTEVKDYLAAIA
thermal stability z-score [1]: -0.132 | thermal stability z-score [2, 3]: 0.38 | thermal stability z-score ([2]; arsenate co-treatment: none): 0.455

PSMA3 (UniProt P25788)
Sequence of UniProt P25788 (P25788 whole entry): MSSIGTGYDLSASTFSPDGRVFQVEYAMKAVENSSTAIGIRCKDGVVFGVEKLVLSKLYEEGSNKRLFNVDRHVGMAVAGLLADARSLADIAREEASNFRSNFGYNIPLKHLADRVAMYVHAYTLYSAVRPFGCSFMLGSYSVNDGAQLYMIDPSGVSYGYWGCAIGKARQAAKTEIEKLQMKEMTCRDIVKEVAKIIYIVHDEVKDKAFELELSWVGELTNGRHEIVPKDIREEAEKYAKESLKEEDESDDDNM
thermal stability z-score [1]: 0.398 | thermal stability z-score [2, 3]: 0.613 | thermal stability z-score ([2]; arsenate co-treatment: none): 0.719

PSMA4 (UniProt P25789)
thermal stability z-score [1]: 0.411 | thermal stability z-score [2, 3]: 1.29 | thermal stability z-score ([2]; arsenate co-treatment: none): 0.788

PSMA5 (UniProt P28066)
thermal stability z-score [1]: -0.238 | thermal stability z-score [2, 3]: 0.148 | thermal stability z-score ([2]; arsenate co-treatment: none): 0.204

PSMA6 (UniProt P60900)
Sequence of UniProt P60900 (P60900 whole entry): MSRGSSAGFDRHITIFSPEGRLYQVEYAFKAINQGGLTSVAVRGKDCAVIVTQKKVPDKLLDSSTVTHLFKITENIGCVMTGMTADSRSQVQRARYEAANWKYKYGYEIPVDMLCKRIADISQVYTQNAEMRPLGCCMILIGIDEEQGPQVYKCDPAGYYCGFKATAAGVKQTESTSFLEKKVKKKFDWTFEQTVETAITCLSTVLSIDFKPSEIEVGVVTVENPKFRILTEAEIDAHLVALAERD
thermal stability z-score [1]: 0.345 | thermal stability z-score [2, 3]: 0.746 | thermal stability z-score ([2]; arsenate co-treatment: none): 0.795

PSMA7 (UniProt O14818)
Sequence of UniProt O14818 (O14818 whole entry): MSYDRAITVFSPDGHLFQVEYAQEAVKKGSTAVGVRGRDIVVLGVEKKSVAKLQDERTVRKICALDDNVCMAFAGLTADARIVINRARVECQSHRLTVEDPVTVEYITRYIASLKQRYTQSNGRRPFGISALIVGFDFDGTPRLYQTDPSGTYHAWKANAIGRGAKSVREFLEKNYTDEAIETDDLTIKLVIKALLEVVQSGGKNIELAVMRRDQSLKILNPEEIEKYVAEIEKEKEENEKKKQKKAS
thermal stability z-score [1]: 0.38 | thermal stability z-score [2, 3]: 0.939 | thermal stability z-score ([2]; arsenate co-treatment: none): 0.898

PSMB1 (UniProt P20618)
thermal stability z-score [1]: 0.497 | thermal stability z-score [2, 3]: 1 | thermal stability z-score ([2]; arsenate co-treatment: none): 0.743

PSMB2 (UniProt P49721)
Sequence of UniProt P49721 (P49721 whole entry): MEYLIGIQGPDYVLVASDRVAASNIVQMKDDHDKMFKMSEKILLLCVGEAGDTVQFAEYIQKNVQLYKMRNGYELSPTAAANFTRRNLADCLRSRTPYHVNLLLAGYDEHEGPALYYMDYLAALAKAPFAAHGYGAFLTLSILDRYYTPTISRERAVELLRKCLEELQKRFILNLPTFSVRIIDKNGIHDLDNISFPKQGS
thermal stability z-score [1]: 1.08 | thermal stability z-score [2, 3]: 1.49 | thermal stability z-score ([2]; arsenate co-treatment: none): 1.31

PSMB3 (UniProt P49720)
Sequence of UniProt P49720 (P49720 whole entry): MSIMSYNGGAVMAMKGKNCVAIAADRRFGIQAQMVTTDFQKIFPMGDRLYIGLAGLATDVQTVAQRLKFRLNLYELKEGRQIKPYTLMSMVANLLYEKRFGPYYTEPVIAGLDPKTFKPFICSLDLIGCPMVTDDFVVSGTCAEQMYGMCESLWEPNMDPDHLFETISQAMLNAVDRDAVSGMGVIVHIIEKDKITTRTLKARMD
thermal stability z-score [1]: 0.157 | thermal stability z-score [2, 3]: 1.04 | thermal stability z-score ([2]; arsenate co-treatment: none): 0.994

PSMB4 (UniProt P28070)
thermal stability z-score [1]: 0.545 | thermal stability z-score [2, 3]: 0.411 | thermal stability z-score ([2]; arsenate co-treatment: none): 0.72

PSMB5 (UniProt P28074)
thermal stability z-score [1]: 0.113 | thermal stability z-score [2, 3]: 0.395 | thermal stability z-score ([2]; arsenate co-treatment: none): 0.222

PSMB6 (UniProt P28072)
thermal stability z-score [1]: -0.414 | thermal stability z-score [2, 3]: 0.174 | thermal stability z-score ([2]; arsenate co-treatment: none): 0.262

PSMB7 (UniProt Q99436)
thermal stability z-score [1]: 0.481 | thermal stability z-score [2, 3]: 1.04 | thermal stability z-score ([2]; arsenate co-treatment: none): 0.99

PSMC1 (UniProt P62191)
thermal stability z-score [1]: -0.724 | thermal stability z-score [2, 3]: -0.269 | thermal stability z-score ([2]; arsenate co-treatment: none): -0.208

PSMC2 (UniProt P35998)
thermal stability z-score [1]: -0.134 | thermal stability z-score [2, 3]: -0.293 | thermal stability z-score ([2]; arsenate co-treatment: none): -0.165

PSMC3 (UniProt P17980)
thermal stability z-score [1]: -0.44 | thermal stability z-score [2, 3]: -0.262 | thermal stability z-score ([2]; arsenate co-treatment: none): -0.0444

PSMC4 (UniProt P43686)
thermal stability z-score [1]: -0.369 | thermal stability z-score [2, 3]: -0.725 | thermal stability z-score ([2]; arsenate co-treatment: none): -0.18

PSMC5 (UniProt P62195)
thermal stability z-score [1]: -0.667 | thermal stability z-score [2, 3]: -0.299 | thermal stability z-score ([2]; arsenate co-treatment: none): -0.397

PSMC6 (UniProt P62333)
Sequence of UniProt P62333 (P62333 whole entry): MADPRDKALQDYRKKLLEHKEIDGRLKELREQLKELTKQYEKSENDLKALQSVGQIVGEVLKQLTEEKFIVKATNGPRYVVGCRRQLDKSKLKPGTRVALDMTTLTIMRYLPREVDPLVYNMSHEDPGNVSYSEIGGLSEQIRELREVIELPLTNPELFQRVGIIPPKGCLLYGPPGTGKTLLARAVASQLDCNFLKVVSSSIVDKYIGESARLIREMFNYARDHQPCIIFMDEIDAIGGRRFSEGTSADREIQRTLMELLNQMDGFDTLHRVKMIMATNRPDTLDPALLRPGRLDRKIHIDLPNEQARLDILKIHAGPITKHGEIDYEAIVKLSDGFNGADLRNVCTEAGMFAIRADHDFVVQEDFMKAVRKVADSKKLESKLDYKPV
thermal stability z-score [1]: -0.23 | thermal stability z-score [2, 3]: 0.467 | thermal stability z-score ([2]; arsenate co-treatment: none): 0.219

PSMD1 (UniProt Q99460)
thermal stability z-score [1]: 0.245 | thermal stability z-score [2, 3]: 0.651 | thermal stability z-score ([2]; arsenate co-treatment: none): 0.343

PSMD2 (UniProt Q13200)
thermal stability z-score [1]: -0.333 | thermal stability z-score [2, 3]: -0.29 | thermal stability z-score ([2]; arsenate co-treatment: none): -0.343

PSMD3 (UniProt O43242)
thermal stability z-score [1]: 0.115 | thermal stability z-score [2, 3]: 0.084 | thermal stability z-score ([2]; arsenate co-treatment: none): 0.0492

PSMD4 (UniProt P55036)
thermal stability z-score [1]: 0.383 | thermal stability z-score [2, 3]: 0.377 | thermal stability z-score ([2]; arsenate co-treatment: none): 0.242

PSMD5 (UniProt Q16401)
Sequence of UniProt Q16401 (Q16401 whole entry): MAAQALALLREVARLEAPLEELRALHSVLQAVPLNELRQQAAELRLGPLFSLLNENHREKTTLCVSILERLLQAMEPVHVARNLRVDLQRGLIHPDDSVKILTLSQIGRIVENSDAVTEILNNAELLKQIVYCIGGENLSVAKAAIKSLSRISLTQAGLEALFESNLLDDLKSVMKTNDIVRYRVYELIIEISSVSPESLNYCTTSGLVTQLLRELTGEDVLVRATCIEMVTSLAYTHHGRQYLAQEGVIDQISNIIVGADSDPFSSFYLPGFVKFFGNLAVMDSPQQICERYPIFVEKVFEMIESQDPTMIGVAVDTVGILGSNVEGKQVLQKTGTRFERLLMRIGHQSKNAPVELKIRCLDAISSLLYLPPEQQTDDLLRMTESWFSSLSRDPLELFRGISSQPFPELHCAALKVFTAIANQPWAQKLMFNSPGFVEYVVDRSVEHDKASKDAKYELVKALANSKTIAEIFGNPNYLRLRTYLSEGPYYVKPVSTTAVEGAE
thermal stability z-score [1]: 0.282 | thermal stability z-score [2, 3]: 0.166 | thermal stability z-score ([2]; arsenate co-treatment: none): 0.024

PSMD6 (UniProt Q15008)
thermal stability z-score [1]: -0.212 | thermal stability z-score [2, 3]: -0.22 | thermal stability z-score ([2]; arsenate co-treatment: none): 0.0409

PSMD7 (UniProt P51665)
thermal stability z-score [1]: -0.475 | thermal stability z-score [2, 3]: -0.802 | thermal stability z-score ([2]; arsenate co-treatment: none): -0.0777

PSMD8 (UniProt P48556)
thermal stability z-score [1]: -0.197 | thermal stability z-score [2, 3]: 0.814 | thermal stability z-score ([2]; arsenate co-treatment: none): 0.532

PSMD9 (UniProt O00233)
Sequence of UniProt O00233 (O00233 whole entry): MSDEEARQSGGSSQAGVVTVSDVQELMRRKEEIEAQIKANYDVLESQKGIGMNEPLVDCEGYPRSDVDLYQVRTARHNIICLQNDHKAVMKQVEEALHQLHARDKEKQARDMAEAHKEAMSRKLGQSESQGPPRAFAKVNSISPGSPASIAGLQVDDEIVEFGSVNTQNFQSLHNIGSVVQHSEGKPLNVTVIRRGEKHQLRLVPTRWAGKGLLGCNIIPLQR
thermal stability z-score [1]: -0.281 | thermal stability z-score [2, 3]: -0.33 | thermal stability z-score ([2]; arsenate co-treatment: none): 0.295

PSMD10 (UniProt O75832)
thermal stability z-score [1]: -0.327 | thermal stability z-score [2, 3]: -0.817 | thermal stability z-score ([2]; arsenate co-treatment: none): 0.0147

PSMD11 (UniProt O00231)
thermal stability z-score [1]: -0.694 | thermal stability z-score [2, 3]: -0.641 | thermal stability z-score ([2]; arsenate co-treatment: none): -0.384

PSMD12 (UniProt O00232)
thermal stability z-score [1]: -0.133 | thermal stability z-score [2, 3]: -0.0164 | thermal stability z-score ([2]; arsenate co-treatment: none): 0.0811

PSMD13 (UniProt Q9UNM6)
thermal stability z-score [1]: -0.0407 | thermal stability z-score [2, 3]: -0.244 | thermal stability z-score ([2]; arsenate co-treatment: none): 0.13

PSMD14 (UniProt O00487)
thermal stability z-score [1]: -0.0143 | thermal stability z-score [2, 3]: 0.501 | thermal stability z-score ([2]; arsenate co-treatment: none): 0.524

PSME1 (UniProt Q06323)
Sequence of UniProt Q06323 (Q06323 whole entry): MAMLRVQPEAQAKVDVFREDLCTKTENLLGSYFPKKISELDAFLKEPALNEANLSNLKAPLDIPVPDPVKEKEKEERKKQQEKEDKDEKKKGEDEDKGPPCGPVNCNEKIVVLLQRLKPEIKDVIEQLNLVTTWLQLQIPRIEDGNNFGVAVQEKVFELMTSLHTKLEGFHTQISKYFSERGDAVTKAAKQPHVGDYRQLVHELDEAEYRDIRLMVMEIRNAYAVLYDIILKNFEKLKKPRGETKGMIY
thermal stability z-score [1]: 0.405 | thermal stability z-score [2, 3]: -0.372 | thermal stability z-score ([2]; arsenate co-treatment: none): -0.217

PSME2 (UniProt Q9UL46)
thermal stability z-score [1]: 0.951 | thermal stability z-score [2, 3]: 0.493 | thermal stability z-score ([2]; arsenate co-treatment: none): 0.0915

PSME3 (UniProt P61289)
thermal stability z-score [1]: 0.504 | thermal stability z-score [2, 3]: 0.957 | thermal stability z-score ([2]; arsenate co-treatment: none): 0.849

PSME4 (UniProt Q14997)
thermal stability z-score [1]: -0.412 | thermal stability z-score [2, 3]: -0.196 | thermal stability z-score ([2]; arsenate co-treatment: none): -0.198

PSMF1 (UniProt Q92530)
thermal stability z-score [1]: -0.0444 | thermal stability z-score [2, 3]: -0.319 | thermal stability z-score ([2]; arsenate co-treatment: none): -0.0828

PSMG1 (UniProt O95456)
thermal stability z-score [1]: 4.18 | thermal stability z-score [2, 3]: 1.07 | thermal stability z-score ([2]; arsenate co-treatment: none): 0.507

PSMG2 (UniProt Q969U7)
Sequence of UniProt Q969U7 (Q969U7 whole entry): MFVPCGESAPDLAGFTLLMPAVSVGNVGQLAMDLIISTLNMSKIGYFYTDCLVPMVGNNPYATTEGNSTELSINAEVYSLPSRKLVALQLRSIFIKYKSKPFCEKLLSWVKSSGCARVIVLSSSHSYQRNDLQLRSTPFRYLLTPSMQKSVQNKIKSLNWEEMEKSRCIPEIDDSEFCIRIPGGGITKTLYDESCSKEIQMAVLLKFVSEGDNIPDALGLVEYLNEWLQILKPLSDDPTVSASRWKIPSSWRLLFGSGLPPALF
thermal stability z-score [1]: 2.01 | thermal stability z-score [2, 3]: 0.926 | thermal stability z-score ([2]; arsenate co-treatment: none): 0.248

PSMG3 (UniProt Q9BT73)
thermal stability z-score [1]: 0.28 | thermal stability z-score [2, 3]: 0.436 | thermal stability z-score ([2]; arsenate co-treatment: none): -0.0166

PSMG4 (UniProt Q5JS54)
thermal stability z-score [1]: -1.38 | thermal stability z-score [2, 3]: -1.42 | thermal stability z-score ([2]; arsenate co-treatment: none): -1.53

PSPC1 (UniProt Q8WXF1)
Sequence of UniProt Q8WXF1 (Q8WXF1 whole entry): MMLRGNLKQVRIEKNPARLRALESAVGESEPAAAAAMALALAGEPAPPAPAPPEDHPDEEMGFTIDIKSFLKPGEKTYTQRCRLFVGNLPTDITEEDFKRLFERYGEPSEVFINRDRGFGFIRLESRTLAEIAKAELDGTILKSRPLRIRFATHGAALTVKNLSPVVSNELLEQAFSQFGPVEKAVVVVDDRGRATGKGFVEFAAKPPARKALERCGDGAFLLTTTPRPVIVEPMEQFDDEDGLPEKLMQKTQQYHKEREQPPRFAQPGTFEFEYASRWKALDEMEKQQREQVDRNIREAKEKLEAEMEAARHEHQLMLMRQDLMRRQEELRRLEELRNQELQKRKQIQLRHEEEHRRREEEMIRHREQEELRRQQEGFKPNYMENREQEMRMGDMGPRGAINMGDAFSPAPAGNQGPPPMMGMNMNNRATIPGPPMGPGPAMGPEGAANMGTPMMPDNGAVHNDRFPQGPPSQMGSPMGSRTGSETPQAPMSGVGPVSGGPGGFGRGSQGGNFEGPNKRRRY
thermal stability z-score [1]: 0.449 | thermal stability z-score [2, 3]: -0.0313 | thermal stability z-score ([2]; arsenate co-treatment: none): 0.551

PSPH (UniProt P78330)
thermal stability z-score [1]: 0.056 | thermal stability z-score [2, 3]: 0.359 | thermal stability z-score ([2]; arsenate co-treatment: none): 0.393

PTAR1 (UniProt Q7Z6K3)
thermal stability z-score [1]: 0.1 | thermal stability z-score [2, 3]: 0.548 | thermal stability z-score ([2]; arsenate co-treatment: none): 0.408

PTBP1 (UniProt P26599)
thermal stability z-score [1]: 0.184 | thermal stability z-score [2, 3]: 1.1 | thermal stability z-score ([2]; arsenate co-treatment: none): 1.82

PTBP2 (UniProt Q9UKA9)
Sequence of UniProt Q9UKA9 (Q9UKA9 whole entry): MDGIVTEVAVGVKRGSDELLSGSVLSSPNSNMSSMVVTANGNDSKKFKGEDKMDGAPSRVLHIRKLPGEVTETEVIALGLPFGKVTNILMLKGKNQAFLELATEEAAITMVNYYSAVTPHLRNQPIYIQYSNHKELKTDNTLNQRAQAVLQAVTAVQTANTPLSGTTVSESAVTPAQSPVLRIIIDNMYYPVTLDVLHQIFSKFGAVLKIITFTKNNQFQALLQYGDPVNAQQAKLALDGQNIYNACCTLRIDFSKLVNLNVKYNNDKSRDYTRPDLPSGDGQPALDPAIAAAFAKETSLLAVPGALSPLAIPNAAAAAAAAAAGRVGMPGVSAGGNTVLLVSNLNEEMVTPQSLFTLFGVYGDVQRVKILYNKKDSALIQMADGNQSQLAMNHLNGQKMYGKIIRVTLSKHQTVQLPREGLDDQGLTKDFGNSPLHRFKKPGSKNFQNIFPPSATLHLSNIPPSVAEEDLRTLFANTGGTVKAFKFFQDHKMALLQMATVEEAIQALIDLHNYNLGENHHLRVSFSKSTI
thermal stability z-score [1]: -0.161 | thermal stability z-score [2, 3]: -0.138 | thermal stability z-score ([2]; arsenate co-treatment: none): -0.14

PTBP3 (UniProt O95758)
thermal stability z-score [1]: -0.772 | thermal stability z-score [2, 3]: -0.713 | thermal stability z-score ([2]; arsenate co-treatment: none): 0.0298

PTCD2 (UniProt Q8WV60)
Sequence of UniProt Q8WV60 (Q8WV60 whole entry): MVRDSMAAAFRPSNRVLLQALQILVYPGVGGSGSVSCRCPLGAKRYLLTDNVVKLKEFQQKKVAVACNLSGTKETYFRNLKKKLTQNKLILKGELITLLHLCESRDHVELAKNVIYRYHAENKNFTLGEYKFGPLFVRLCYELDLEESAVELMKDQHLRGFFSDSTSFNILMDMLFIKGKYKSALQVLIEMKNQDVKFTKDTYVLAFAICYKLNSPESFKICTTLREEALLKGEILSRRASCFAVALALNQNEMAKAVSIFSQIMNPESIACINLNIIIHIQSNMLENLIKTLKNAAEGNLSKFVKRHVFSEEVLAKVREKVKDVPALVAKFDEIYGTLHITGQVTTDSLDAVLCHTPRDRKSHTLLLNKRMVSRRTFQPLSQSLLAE
thermal stability z-score [1]: -0.0322 | thermal stability z-score [2, 3]: 0.00948 | thermal stability z-score ([2]; arsenate co-treatment: none): -0.0661

PTCD3 (UniProt Q96EY7)
thermal stability z-score [1]: -0.0411 | thermal stability z-score [2, 3]: 0.272 | thermal stability z-score ([2]; arsenate co-treatment: none): 0.525

PTDSS1 (UniProt P48651)
thermal stability z-score [1]: -0.375 | thermal stability z-score [2, 3]: -1.63 | thermal stability z-score ([2]; arsenate co-treatment: none): -1.23

PTDSS2 (UniProt Q9BVG9)
thermal stability z-score [1]: -0.0291 | thermal stability z-score [2, 3]: 0.2 | thermal stability z-score ([2]; arsenate co-treatment: none): -0.0317

PTEN (UniProt P60484)
Sequence of UniProt P60484 (P60484 whole entry): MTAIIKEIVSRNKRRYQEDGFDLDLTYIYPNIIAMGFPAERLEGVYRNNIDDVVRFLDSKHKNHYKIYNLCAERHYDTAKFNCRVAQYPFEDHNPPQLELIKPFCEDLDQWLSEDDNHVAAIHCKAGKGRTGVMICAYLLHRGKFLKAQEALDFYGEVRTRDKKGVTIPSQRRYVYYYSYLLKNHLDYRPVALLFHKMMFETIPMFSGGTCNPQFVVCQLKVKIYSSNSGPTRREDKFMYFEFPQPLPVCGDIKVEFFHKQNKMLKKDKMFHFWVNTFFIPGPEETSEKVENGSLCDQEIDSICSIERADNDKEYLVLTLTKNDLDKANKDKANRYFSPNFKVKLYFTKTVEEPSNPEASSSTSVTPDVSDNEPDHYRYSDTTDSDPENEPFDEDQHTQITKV
thermal stability z-score [1]: -0.185 | thermal stability z-score [2, 3]: -0.0735 | thermal stability z-score ([2]; arsenate co-treatment: none): -0.0591
